Reference: ChEMBL document CHEMBL4613208, “Isatin derivatives and their anti-bacterial activities” (Eur J Med Chem, 2019)
In brackets after ≈: the same amount, converted by molar mass.

Key:
[1] = system: Escherichia coli; experiment: Potency index, ratio of ED50 for norfloxacin to ED50 for test compound for in vivo antibacterial activity against Escherichia coli infected in po dosed mouse; format: functional
[2] = system: Escherichia coli; experiment: Antibacterial activity against Escherichia coli NCTC 10418; format: functional
[3] = system: Staphylococcus aureus; experiment: Antibacterial activity against Staphylococcus aureus; format: functional, organism-based
[4] = system: Pseudomonas aeruginosa; experiment: Antibacterial activity against Pseudomonas aeruginosa; format: functional, organism-based
[5] = system: Staphylococcus epidermidis; experiment: Antibacterial activity against Staphylococcus epidermidis; format: functional
[6] = system: Bacillus pumilus; experiment: Antibacterial activity against Bacillus pumilus; format: functional
[7] = system: Priestia megaterium; experiment: Antibacterial activity against Bacillus megaterium; format: functional
[8] = system: Escherichia coli; experiment: In vivo antibacterial activity against Escherichia coli infected in po dosed mouse; format: functional
[9] = Toxicity in po dosed mouse; format: organism-based; conditions: in vivo
[10] = system: Klebsiella pneumoniae; experiment: Antibacterial activity against Klebsiella pneumoniae; format: functional
[11] = system: Shigella flexneri; experiment: Antibacterial activity against Shigella flexneri; format: functional
[12] = system: Escherichia coli; experiment: Antibacterial activity against Escherichia coli; format: functional, organism-based
[13] = system: Salmonella typhi; experiment: Antibacterial activity against Salmonella typhi; format: functional, Salmonella enterica subsp. enterica serovar Typhi; conditions: Salmonella enterica
[14] = system: Vibrio cholerae; experiment: Antibacterial activity against Vibrio cholerae; format: functional
[15] = system: Citrobacter freundii; experiment: Antibacterial activity against Citrobacter freundii; format: functional
[16] = system: Staphylococcus aureus; experiment: Antibacterial activity against Staphylococcus aureus ATCC 25923 after 24 hrs by agar well diffusion technique; format: functional; conditions: ATCC 25923, 24 h
[17] = system: Bacillus cereus; experiment: Antibacterial activity against Bacillus cereus after 24 hrs by agar well diffusion technique; format: functional
[18] = system: Escherichia coli; experiment: Antibacterial activity against Escherichia coli ATCC 25922 after 24 hrs by agar well diffusion technique; format: functional; conditions: ATCC 25922, 24 h
[19] = system: Shigella dysenteriae; experiment: Antibacterial activity against Shigella dysenteriae after 24 hrs by agar well diffusion technique; format: functional
[20] = system: Shigella dysenteriae; experiment: Potency index, ratio of MIC for sulfamethoxazole to MIC for test compound for antibacterial activity against Shigella dysenteriae after 24 hrs by agar well diffusion technique; format: functional

Structure (SMILES): CCn1cc(C(=O)O)c(=O)c2cc(F)c(N3CCN(CN4C(=O)/C(=N\c5ncc(Cc6cc(OC)c(OC)c(OC)c6)c(N)n5)c5cc(Br)ccc54)CC3)cc21
- Ratio ED50 [1]: >3.7
- MIC [2]: < 1 µg/mL

Structure (SMILES): N[C@@H](C(=O)N[C@@H]1C(=O)N2C(C(=O)O)=C(Cl)CS[C@H]12)c1ccccc1 [CEFACLOR ANHYDROUS]
- MIC [3]: 2 to 8 µg/mL (≈ 5.44 to 21.8 µM)
- MIC [4]: 2 to 8 µg/mL (≈ 5.44 to 21.8 µM)
- MIC [5]: 2 to 8 µg/mL (≈ 5.44 to 21.8 µM)
- MIC [6]: 2 to 8 µg/mL (≈ 5.44 to 21.8 µM)
- MIC [7]: 2 to 8 µg/mL (≈ 5.44 to 21.8 µM)

Structure (SMILES): CCn1cc(C(=O)O)c(=O)c2cc(F)c(N3CCN(CN4C(=O)/C(=N\c5ccc(S(=O)(=O)Nc6ncnc(OC)c6OC)cc5)c5ccccc54)CC3)cc21
- ED50 [8]: 1.25 mg/kg
- Ratio ED50 [1]: >3.7
- LD50 [9]: > 4000 mg/kg
- MIC [2]: < 1 µg/mL

Structure (SMILES): CCn1cc(C(=O)O)c(=O)c2cc(F)c(N3CCNCC3)cc21 [NORFLOXACIN]
- ED50 [8]: 6 mg/kg

Structure (SMILES): CC(=O)NC[C@H]1CN(c2ccc(N3CCOCC3)c(F)c2)C(=O)O1 [LINEZOLID]
- MIC [3]: 4 to 8 µg/mL (≈ 11.9 to 23.7 µM)
- MIC [4]: 4 to 8 µg/mL (≈ 11.9 to 23.7 µM)
- MIC [5]: 4 to 8 µg/mL (≈ 11.9 to 23.7 µM)
- MIC [6]: 4 to 8 µg/mL (≈ 11.9 to 23.7 µM)
- MIC [7]: 4 to 8 µg/mL (≈ 11.9 to 23.7 µM)

Structure (SMILES): CCn1cc(C(=O)O)c(=O)c2cc(F)c(N3CCNC(C)C3)c(F)c21 (stereo unspecified) [LOMEFLOXACIN]
- MIC [3]: 0.25 to 2.5 µg/mL (≈ 0.712 to 7.12 µM)
- MIC [10]: 0.25 to 2.5 µg/mL (≈ 0.712 to 7.12 µM)
- MIC [11]: 0.25 to 2.5 µg/mL (≈ 0.712 to 7.12 µM)
- MIC [12]: 0.25 to 2.5 µg/mL (≈ 0.712 to 7.12 µM)
- MIC [4]: 0.25 to 2.5 µg/mL (≈ 0.712 to 7.12 µM)
- MIC [13]: 0.25 to 2.5 µg/mL (≈ 0.712 to 7.12 µM)
- MIC [14]: 0.25 to 2.5 µg/mL (≈ 0.712 to 7.12 µM)
- MIC [5]: 0.25 to 2.5 µg/mL (≈ 0.712 to 7.12 µM)
- MIC [15]: 0.25 to 2.5 µg/mL (≈ 0.712 to 7.12 µM)

Structure (SMILES): Cc1ccc2c(c1)/C(=N/c1ccc(S(=O)(=O)Nc3cc(C)on3)cc1)C(=O)N2
- MIC [16]: 5 µg/mL (≈ 12.6 µM)
- MIC [17]: 5 µg/mL (≈ 12.6 µM)
- MIC [18]: 5 µg/mL (≈ 12.6 µM)
- MIC [19]: 1 µg/mL (≈ 2.52 µM)
- Ratio [20]: 2.5
